Data set [1] deals with T1, hα7-wt nAChR (Homo sapiens, UniProt P36544). Briefly: Patch-clamp current recording (whole-cell voltage clamp), potentiation of choline current and PAM type. It is filed as cell-based. Set-up: key: Type 0 compounds minimally enhance the effect size of the current elicited by 1 mM choline.; Type 1 compounds enhance the effect size of the current elicited by 1 mM choline but minimally alter the kinetics of the receptor.; Type 2 compounds enhance the effect size of the current elicited by 1 mM choline while reducing the rate and/or the extent of desensitization.; Type 3 compounds enhance the effect size of the current elicited by 1 mM choline. When tested at higher concentrations up to 10 μM they completely inhibit desensitization, in particular a 1 mM choline application of 250 milliseconds.; Type 4 compounds allow for an initial desensitization of the receptor followed by a re-opening of the receptor during agonist application. Conditions: hα7-wt nAChR-expressing GH4C1 cells, 1 mM choline. An outline of the steps:
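GH4C1 cells stably expressing human wild-type α7 nAChR, whole-cell voltage clamp at −70 mV with rapid application (<100 ms); compound co-applied with 1 mM choline. Peak current potentiation expressed relative to choline-alone response (=100%); compounds reaching ≥200% assigned PAM type 0–4 by current kinetics and desensitization.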
A general note: In patch-clamp work, channel activity is measured electrically.

The target of data set [2] is T1, hα7-wt nAChR. Put plainly: Ca2+ flux imaging (FDSS): potentiation of the choline response. The settings on record: Ca2+ assay as described in D.1, potentiation of choline response, hα7-wt nAChR; for EC50: read-out: Potency (pEC50) (converted). It is filed as cell-based. A digest of the protocol: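 Cells expressing human α7-wt nAChR loaded with fluo-4AM (2 μM final) up to 120 min; HBSS/10 mM HEPES/5 mM CaCl2/0.1% BSA buffer. Compound (0.01–30 μM) applied up to 10 min before 100 μM choline; peak fluorescence measured on FDSS relative to choline alone (100%). EC50 from sigmoidal curves.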

One may read the melting point as the temperature, or range, at which the solid turns liquid.

T1 sequence (P36544 23-502): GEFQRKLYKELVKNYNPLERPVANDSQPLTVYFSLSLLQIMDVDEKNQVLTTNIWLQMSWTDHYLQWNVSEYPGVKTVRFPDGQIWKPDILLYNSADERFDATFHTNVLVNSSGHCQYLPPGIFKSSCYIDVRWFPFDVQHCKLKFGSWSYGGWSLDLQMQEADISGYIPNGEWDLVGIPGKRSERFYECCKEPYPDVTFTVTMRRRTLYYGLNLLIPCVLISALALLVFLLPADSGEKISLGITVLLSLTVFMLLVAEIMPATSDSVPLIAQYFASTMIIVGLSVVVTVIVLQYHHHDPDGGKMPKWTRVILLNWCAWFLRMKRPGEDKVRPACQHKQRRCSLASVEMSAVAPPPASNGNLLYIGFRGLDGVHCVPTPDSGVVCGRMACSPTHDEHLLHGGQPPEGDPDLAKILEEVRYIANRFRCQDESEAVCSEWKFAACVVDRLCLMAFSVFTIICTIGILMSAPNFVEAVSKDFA

Turning to `CNC(=O)Cc1cc(Nc2cccc(Cl)c2F)nn1-c1ccnc(C)c1` [Compound 71, 3-[(3-chloro-2-fluorophenyl)amino]-N-methyl-1-(2-methyl-4-pyridinyl)-1H-pyrazole-5-acetamide], the melting point is 229.7 °C. In addition, the PAM type in data set [1] stood at 2. For the same compound, the EC50 in data set [2] was 2240 nM.

`CC[C@H](O)Cc1cc(Nc2ccc(F)c(F)c2)nn1-c1ccnc(C)c1` [Compound 17, (alphaS)-3-[(3,4-difluorophenyl)amino]-alpha-ethyl-1-(2-methyl-4-pyridinyl)-1H-pyrazole-5-ethanol] yielded a melting point of 163.2 °C. Moreover, in data set [1], the PAM type is 2. For the same compound, in data set [2] (read-out: % Efficacy), the Emax worked out at 880%. For the same compound, the EC50 in data set [2] was 1660 nM.

For `CNC(=O)Cc1cc(Nc2cc(OC)cc(C(F)(F)F)c2)nn1-c1ccnc(C)c1` [Compound 43, 3-[[3-methoxy-5-(trifluoromethyl)phenyl]amino]-N-methyl-1-(2-methyl-4-pyridinyl)-1H-pyrazole-5-acetamide], the melting point amounted to 237.9 °C. The PAM type in data set [1] is 4. In addition, the EC50 in data set [2] is 562 nM.

Compound `Cc1cc(-n2nc(Nc3cccc(OC(F)(F)F)c3)cc2CC(=O)NC2CC2)ccn1` [Compound 117, N-cyclopropyl-1-(2-methyl-4-pyridinyl)-3-[[3-(trifluoromethoxy)phenyl]amino]-1H-pyrazole-5-acetamide] gave a melting point of 224.6 °C. Further, the PAM type in data set [1] was determined as 3. Besides, in data set [2], the EC50 was 1200 nM.

Regarding `COc1cc(Nc2cc(CCC(=O)N(C)C)n(-c3ccnc(C)c3)n2)cc(C(F)(F)F)c1` [Compound 9, 3-[[3-methoxy-5-(trifluoromethyl)phenyl]amino]-N,N-dimethyl-1-(2-methyl-4-pyridinyl)-1H-pyrazole-5-propanamide], the melting point is 146.4 °C. In data set [1], the PAM type is recorded as 4. Moreover, the EC50 in data set [2] was 170 nM.

Compound `Cc1cc(-n2nc(Nc3ccc(F)c(F)c3)cc2CC(=O)NCC2CC2)ccn1` [Compound 29, N-(cyclopropylmethyl)-3-[(3,4-difluorophenyl)amino]-1-(2-methyl-4-pyridinyl)-1H-pyrazole-5-acetamide] yielded a melting point of 230.3 °C. Besides, in data set [1], the PAM type worked out at 2. For the same compound, the EC50 in data set [2] is 692 nM.

Compound `Cc1cc(-n2nc(Nc3cccc(OC(F)(F)F)c3)cc2CC(=O)NCC2CC2)ccn1` [Compound 119, N-(cyclopropylmethyl)-1-(2-methyl-4-pyridinyl)-3-[[3-(trifluoromethoxy)phenyl]amino]-1H-pyrazole-5-acetamide] gave a melting point of 191.7 °C. In addition, the PAM type in data set [1] amounted to 2. The EC50 in data set [2] is 324 nM.

`Cc1cc(-n2nc(Nc3cccc(OC(F)(F)F)c3)cc2CC(=O)NC2CC2)cc(C)n1` [Compound 118, N-cyclopropyl-1-(2,6-dimethyl-4-pyridinyl)-3-[[3-(trifluoromethoxy)phenyl]amino]-1H-pyrazole-5-acetamide] came in with a melting point of 230.8 °C. For the same compound, the PAM type in data set [1] turned out to be 2. Besides, the EC50 in data set [2] was 324 nM.

On to `Cc1cc(-n2nc(Nc3ccc4c(c3)OC(F)(F)O4)cc2CCC(=O)N(C)C)ccn1` [Compound 99, 3-[(2,2-difluoro-1,3-benzodioxol-5-yl)amino]-N,N-dimethyl-1-(2-methyl-4-pyridinyl)-1H-pyrazole-5-propanamide], for which the melting point amounted to 132 °C. Further, the PAM type in data set [1] stood at 4. In addition, in data set [2], the EC50 is 490 nM.

Compound `COc1cc(Nc2cc(CC(=O)NC3CCC3)n(-c3ccnc(C)c3)n2)cc(C(F)(F)F)c1` [Compound 48, N-cyclobutyl-3-[[3-methoxy-5-(trifluoromethyl)phenyl]amino]-1-(2-methyl-4-pyridinyl)-1H-pyrazole-5-acetamide] registered a melting point of 249.2 °C. The PAM type in data set [1] came out at 4. The EC50 in data set [2] is 79.4 nM.

The values above are taken from patent US8791144B2, “Substituted N-phenyl-1-(4-Pyridinyl)-1H-pyrazol-3-amines” (Janssen Pharmaceutica NV, priority 2009, dated 2014).
